In test [1] the test system is HCC1954 (BRCA1 WT) cell line. Nature of the test: Viability assay in BRCA1 WT cell line HCC1954. The note with it: Homo sapiens, read-out: HCC 1954 IC50 rel IC50. It counts as cell-based. An excerpt:
(§1) Table 1 also indicates IC50 values in a viability assay for a non-isogenic pair of BRCA1 mutant (column 5—MDA-MB-436) and BRCA1 WT (column 6—HCC1954) cell lines. These values indicate the effect of treatment with compound on cell survival.

Test [2] concerns MDA-MB-436 (BRCA1 mutant) cell line. The experiment in a line: Viability assay in BRCA1 mutant cell line MDA-MB-436. It counts as cell-based. The note with it: Homo sapiens, MDA-MB-436, viability, BRCA1 mutant MDA-MB-436; read-out: MDA-MB-436 rel IC50.
Excerpt: as §1

For another test, the target named is USP1-UAF1 (Homo sapiens, UniProt O94782). The experiment in a line: Ubiquitin Rhodamine assay for USP1-UAF1 activity. It counts as biochemical. As to the method: Certain compounds of the disclosure were assessed for USP1-UAF1 activity in a Ubiquitin Rhodamine assay as described in Example 135.

The term IC50 denotes the point on the concentration scale where inhibition reaches its midpoint.

USP1-UAF1, sequence (O94782 whole entry): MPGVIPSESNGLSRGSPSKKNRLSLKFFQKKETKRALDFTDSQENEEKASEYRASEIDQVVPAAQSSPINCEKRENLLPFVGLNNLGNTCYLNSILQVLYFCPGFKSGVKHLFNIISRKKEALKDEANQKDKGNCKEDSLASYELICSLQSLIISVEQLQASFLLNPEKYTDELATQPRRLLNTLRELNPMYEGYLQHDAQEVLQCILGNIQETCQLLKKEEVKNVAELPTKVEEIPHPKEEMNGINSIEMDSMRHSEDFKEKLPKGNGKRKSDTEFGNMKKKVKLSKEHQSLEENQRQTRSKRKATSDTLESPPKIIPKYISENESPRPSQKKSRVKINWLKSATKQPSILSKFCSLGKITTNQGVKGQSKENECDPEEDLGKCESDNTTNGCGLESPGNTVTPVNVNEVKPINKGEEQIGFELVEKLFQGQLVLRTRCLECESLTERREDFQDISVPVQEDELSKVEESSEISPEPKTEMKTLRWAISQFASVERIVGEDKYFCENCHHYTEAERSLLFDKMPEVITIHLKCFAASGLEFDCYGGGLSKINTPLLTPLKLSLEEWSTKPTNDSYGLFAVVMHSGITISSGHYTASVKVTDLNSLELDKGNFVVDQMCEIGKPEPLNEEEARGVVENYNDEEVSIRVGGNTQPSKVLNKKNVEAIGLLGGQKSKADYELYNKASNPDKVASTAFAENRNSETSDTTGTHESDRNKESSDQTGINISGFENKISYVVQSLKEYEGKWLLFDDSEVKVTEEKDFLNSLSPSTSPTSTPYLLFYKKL
USP1-UAF1, sequence (Q8TAF3 whole entry partner): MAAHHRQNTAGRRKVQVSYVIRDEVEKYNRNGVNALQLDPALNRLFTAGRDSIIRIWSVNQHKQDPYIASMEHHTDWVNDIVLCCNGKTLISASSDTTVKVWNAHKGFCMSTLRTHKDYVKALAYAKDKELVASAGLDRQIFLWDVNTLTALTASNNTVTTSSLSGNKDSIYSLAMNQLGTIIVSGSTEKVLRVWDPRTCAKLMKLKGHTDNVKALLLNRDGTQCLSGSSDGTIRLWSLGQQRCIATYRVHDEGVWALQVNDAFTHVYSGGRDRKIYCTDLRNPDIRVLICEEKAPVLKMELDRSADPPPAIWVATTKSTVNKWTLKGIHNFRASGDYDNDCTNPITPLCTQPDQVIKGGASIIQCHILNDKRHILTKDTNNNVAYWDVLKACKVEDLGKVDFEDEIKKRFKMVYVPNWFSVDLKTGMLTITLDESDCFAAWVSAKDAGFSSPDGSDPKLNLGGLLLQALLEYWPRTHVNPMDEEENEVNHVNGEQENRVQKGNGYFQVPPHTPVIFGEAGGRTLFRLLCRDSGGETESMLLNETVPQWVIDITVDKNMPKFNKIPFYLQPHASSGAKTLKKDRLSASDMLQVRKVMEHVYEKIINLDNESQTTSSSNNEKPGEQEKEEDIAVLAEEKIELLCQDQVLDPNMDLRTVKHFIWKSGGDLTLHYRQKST

Turning to `CC(C)Nc1ncccc1-c1ncc2[nH]cc(Cc3ccc(-c4nc(C(F)(F)F)cn4C)cc3)c2n1` [Compound 50, N-isopropyl-3-[7-[[4-[1-methyl-4-(trifluoromethyl)imidazol-2-yl]phenyl]methyl]-5H-pyrrolo[3,2-d]pyrimidin-2-yl]pyridin-2-amine], the 50% inhibitory concentration (IC50) in test [1] fell in the range of 0.25 to 10 µM; in test [2] it was 0.25 to 10 µM; against USP1-UAF1 it was 0.1 to 10 µM.
Consider `Cn1cc(C(F)(F)F)nc1-c1ccc(Cc2n[nH]c3cnc(-c4c(Cl)ccnc4C4CC4)nc23)cc1` [Compound 156, 5-(4-chloro-2-cyclopropylpyridin-3-yl)-3-(4-(1-methyl-4-(trifluoromethyl)-1H-imidazol-2-yl)benzyl)-1H-pyrazolo[4,3-d]pyrimidine], for which the half-inhibitory concentration (IC50) was not below 10 µM in test [1], less than 0.1 µM in test [2] and less than 0.03 µM at USP1-UAF1.
Turning to `COc1ncnc(C2CC2)c1-c1ncc2[nH]cc(C(O)c3ccc(-c4nc(C(F)(F)F)cn4C(C)C)cc3)c2n1` (stereo not drawn) [Compound 59, [2-(4-cyclopropyl-6-methoxy-pyrimidin-5-yl)-5H-pyrrolo[3,2-d]pyrimidin-7-yl]-[4-[1-isopropyl-4-(trifluoromethyl)imidazol-2-yl]phenyl]methanol], the IC50 is 0.25 to 10 µM in test [1], 0.25 to 10 µM in test [2] and 0.1 to 10 µM at USP1-UAF1.
As for `CC(C)c1ccccc1-c1ncc2[nH]cc(Nc3ccc(-c4nc(C(F)(F)F)cn4C)cc3)c2n1` [Compound 62, 2-(2-isopropylphenyl)-N-[4-[1-methyl-4-(trifluoromethyl)imidazol-2-yl]phenyl]-5H-pyrrolo[3,2-d]pyrimidin-7-amine], the IC50 in test [1] lay in the range of 0.25 to 10 µM; in test [2] it was 0.25 to 10 µM; against USP1-UAF1, 0.1 to 10 µM.
`COc1ncnc(C2CC2)c1-c1ncc2[nH]cc(C(C)c3ccc(-c4nc(C(F)(F)F)cn4C)cc3)c2n1` (stereo not drawn) [Compound 128]: the IC50 was not below 10 µM in test [1], less than 0.1 µM in test [2] and less than 0.03 µM against USP1-UAF1.
With `COCCc1[nH]c2cnc(-c3c(OC)ncnc3C3CC3)nc2c1C(O)c1ccc(-c2nc(C(F)(F)F)cn2C)cc1` (stereo not drawn) [Compound 109, [2-(4-cyclopropyl-6-methoxy-pyrimidin-5-yl)-6-(2-methoxyethyl)-5H-pyrrolo[3,2-d]pyrimidin-7-yl]-[4-[1-methyl-4-(trifluoromethyl)imidazol-2-yl]phenyl]methanol], the IC50 in test [1] was not below 10 µM; in test [2], 0.25 to 10 µM; at USP1-UAF1, 0.1 to 10 µM.
For the compound `CN(Cc1ccccc1-c1ncc2[nH]cc(C(O)c3ccc(-c4nc(C(F)(F)F)cn4C)cc3)c2n1)CC(F)(F)F` (stereo not drawn) [Compound 42], the IC50 in test [1] was not below 10 µM; in test [2], 0.25 to 10 µM; against USP1-UAF1, 0.1 to 10 µM.
For `CNc1ncccc1-c1ncc2[nH]cc(Cc3ccc(-c4nc(C(F)(F)F)cn4C)cc3)c2n1` [Compound 58, N-methyl-3-[7-[[4-[1-methyl-4-(trifluoromethyl)imidazol-2-yl]phenyl]methyl]-5H-pyrrolo[3,2-d]pyrimidin-2-yl]pyridin-2-amine], the IC50 in test [1] was 0.25 to 10 µM; in test [2], 0.25 to 10 µM; on USP1-UAF1, 0.1 to 10 µM.
As to `COc1ncnc(C2CC2)c1-c1ncc2c(n1)c(Cc1ccc(-c3nc(C(F)(F)F)cn3C)cc1)cn2C` [Compound 39, 2-(4-cyclopropyl-6-methoxy-pyrimidin-5-yl)-5-methyl-7-[[4-[1-methyl-4-(trifluoromethyl)imidazol-2-yl]phenyl]methyl]pyrrolo[3,2-d]pyrimidine], the IC50 was not below 10 µM in test [1], less than 0.1 µM in test [2] and less than 0.03 µM on USP1-UAF1.
The matching figures for `Cn1cc(C(F)(F)F)nc1-c1ccc(Nc2c[nH]c3cnc(-c4cccnc4C4CC4)nc23)cc1` [Compound 43, 2-(2-cyclopropyl-3-pyridyl)-N-[4-[1-methyl-4-(trifluoromethyl)imidazol-2-yl]phenyl]-5H-pyrrolo[3,2-d]pyrimidin-7-amine]: not below 10 µM, not below 10 µM and 0.1 to 10 µM.
Consider `CC(C)n1cc(C(F)(F)F)nc1-c1ccc(C(O)c2c[nH]c3cnc(-c4cccnc4OC(F)F)nc23)cc1` (stereo not drawn) [Compound 52, [2-[2-(difluoromethoxy)-3-pyridyl]-5H-pyrrolo[3,2-d]pyrimidin-7-yl]-[4-[1-isopropyl-4-(trifluoromethyl)imidazol-2-yl]phenyl]methanol], for which the IC50 in test [1] is not below 10 µM; in test [2] it was 0.25 to 10 µM; against USP1-UAF1, 0.1 to 10 µM.
For the compound `Cn1cc(C(F)(F)F)nc1-c1ccc(Cc2c[nH]c3cnc(-c4c(OC5CC5)ncnc4C4CC4)nc23)cc1` [Compound 155], the concentration for half-maximal inhibition (IC50) in test [1] is not below 10 µM; in test [2], less than 0.1 µM; at USP1-UAF1, less than 0.03 µM.
As to `COc1ncnc(C2CC2)c1-c1ncc2[nH]cc(C(O)c3ccc(-c4nc(C(F)(F)F)cn4C)cc3)c2n1` (stereo not drawn) [Compound 49, [2-(4-cyclopropyl-6-methoxy-pyrimidin-5-yl)-5H-pyrrolo[3,2-d]pyrimidin-7-yl]-[4-[1-methyl-4-(trifluoromethyl)imidazol-2-yl]phenyl]methanol], the IC50 was not below 10 µM in test [1], 0.25 to 10 µM in test [2] and 0.1 to 10 µM against USP1-UAF1.
Take `COc1ncnc(C2CC2)c1-c1nc(Cl)c2[nH]cc(Cc3ccc(-c4nc(C(F)(F)F)cn4C)cc3)c2n1` [Compound 187, 4-chloro-2-(4-cyclopropyl-6-methoxy-pyrimidin-5-yl)-7-[[4-[1-methyl-4-(trifluoromethyl)imidazol-2-yl]phenyl]methyl]-5H-pyrrolo[3,2-d]pyrimidine]: the results for the half-inhibitory concentration (IC50) (in test [1]; in test [2]; at USP1-UAF1) were 0.25 to 10 µM, less than 0.1 µM and less than 0.03 µM, respectively.
Take `CCn1c(C(F)(F)F)cnc1-c1ccc(C(O)c2c[nH]c3cnc(-c4c(OC)ncnc4C4CC4)nc23)cc1` (stereo not drawn) [Compound 75]: the half-maximal inhibitory concentration (IC50) (in test [1]; in test [2]; against USP1-UAF1) was not below 10 µM in each case.
For `COc1ncnc(C2CC2)c1-c1ncc2[nH]cc([C@H](c3ccc(-c4nc(C(F)(F)F)cn4C)cc3)C(C)C)c2n1` (single isomer, unassigned) [Compound 208], the figures for the half-maximal inhibitory concentration (IC50) (in test [1]; in test [2]; at USP1-UAF1) were 0.25 to 10 µM, 0.25 to 10 µM and 0.1 to 10 µM, respectively.
`CC(C)c1ccccc1-c1ncc2[nH]cc(CN3CCC(c4nc(C(F)(F)F)cn4C)CC3)c2n1` [Compound 6, 2-(2-isopropylphenyl)-7-[[4-[1-methyl-4-(trifluoromethyl)imidazol-2-yl]-1-piperidyl]methyl]-5H-pyrrolo[3,2-d]pyrimidine]: the IC50 in test [1] is not below 10 µM; in test [2], 0.25 to 10 µM; at USP1-UAF1, 0.1 to 10 µM.
For the compound `Cn1cc(C(F)(F)F)nc1-c1ccc(C(O)c2c[nH]c3cnc(-c4c(C(F)(F)F)cnn4C)nc23)cc1` (stereo not drawn) [Compound 108, [4-[1-methyl-4-(trifluoromethyl)imidazol-2-yl]phenyl]-[2-[2-methyl-4-(trifluoromethyl)pyrazol-3-yl]-5H-pyrrolo[3,2-d]pyrimidin-7-yl]methanol], the IC50 in test [1] is not below 10 µM; in test [2], 0.25 to 10 µM; at USP1-UAF1, 0.1 to 10 µM.
Taken in the same sequence, the figures for `CC(C)c1ccccc1-c1ncc2[nH]cc(C(=O)c3ccc(-c4nc(C(F)(F)F)cn4C)cc3)c2n1` [Compound 86, [2-(2-isopropylphenyl)-5H-pyrrolo[3,2-d]pyrimidin-7-yl]-[4-[1-methyl-4-(trifluoromethyl)imidazol-2-yl]phenyl]methanone] were 0.25 to 10 µM, 0.25 to 10 µM and not below 10 µM.

These data come from patent US20240182481A1 (Tango Therapeutics, Inc., priority 2021, published 2024).
